# According to patent US20050070552A1, “Ion channel modulating activity I” (Cardiome Pharma Corp., priority 2003, published 2005):
# Read-outs that look alike come from different tables or passages of the source.
# How the values were obtained:
# [1] = target: human heart sodium channels (hH1) (Homo sapiens, UniProt Q14524); format: cell-based
# [2] = format: in vivo, rabbit
# Protocol: Briefly, continuous infusion of COMPOUND A was administered prior to continuous infusion of methoxamine and followed by clofilium. The incidence of TdP (the number of animals in which TdP occurred) was compared to experiments in which COMPOUND A was not infused.
# The following procedure was used: (1) Female NZW rabbits were weighed and anaesthetised initially with 35 mg/kg sodium pentobarbital via ear vein (60 mg/mL) using a sterile 23G 3/4 needle. Additional doses (in increments of 0.2-0.3 mL) were used if required to attain and maintain sufficient anaesthesia as determined by abolishment of eyelid reflex. Care was taken not to over anaesthetize as this could cause respiratory and cardiac arrest. (2) The anaesthetised rabbit was placed on a rabbit restraining board in the supine position and limbs were tied down. (3) The fur in the neck and inguinal region were wetted with water and trimmed down to the skin with scissors to facilitate dissection. Fur was placed in a water-filled beaker to prevent fur from becoming airborne. (4) The left or right femoral artery was cannulated with PE 50 tubing and attached to a pressure transducer to monitor blood pressure. (5) The right and left jugular veins were cannulated using PE-90 tubing for drug delivery via an infusion pump. (6) The left or right femoral vein was cannulated using PE-50 tubing for drug delivery via an infusion pump. (7) ECG leads were attached as follows: the ground lead was inserted subcutaneously into the femoral vein region; one lead was inserted subcutaneously near the apex of the heart and the third lead was placed in the open surgical area near the right jugular vein. (8) Control recordings of ECG and blood pressure were taken for 5 minutes to observe pre-drug effects. Recordings were continued throughout the entire experiment. (9) Arterial K^+ concentration was measured with the hand-held I-STAT blood-gas analyzer prior to infusion of arrhythmogenic agent and at the end of the experiment. […] Infusion was continued throughout the experiment. (11) After a further 5 minutes, methoxamine was administered at 20 μg/kg/min via the femoral vein. Methoxamine infusion was also continued throughout the experiment. (12) 10 minutes following the start of methoxamine infusion, clofilium was infused via a jugular vein. (13) In COMPOUND A-pretreated animals and controls, recording continued for 15 minutes regardless of whether TdP is seen or not. (14) A blood sample was collected when the experimental endpoint was reached, immediately after the infusion pumps were stopped.
# COMPOUND A was applied and examined as described. To analyze the data, the parameters measured are (1) incidence of TdP (2) duration of TdP episodes (3) arterial K^+ concentration, (4) PR, QRS and QTc intervals during normal sinus rhythm (until arrhythmias begin and determination is no longer possible), (5) BP, and (6) HR.
# rabbit Purkinje fibers [3] = experiment: Action potential duration in rabbit Purkinje fibers; format: cell-based; settings: n=10
# Protocol: A midline thoracotomy was performed and the heart was excised as practised by those skilled in the art. […] The heart was perfused with standard bicarbonate buffered Krebs' solution known to those skilled in the art. An electrode was pulled from thin-walled filamented borosilicate glass capillary tubes having a resistance of 10 to 30 megaohms when filled with 3 M KCl. The electrode was attached to headstage mounted on an Axoclamp 2A amplifier (or a similar amplifier known to those skilled in the art). The microelectrode was brought down upon an exposed Purkinje fiber using a micromanipulator and the position was adjusted until the electrode penetrated a single Purkinje cell. The Purkinje fiber network was stimulated using a biphasic stimulation pulse and subsequent action potentials were recorded for analysis.
# rabbit Purkinje fibers [4] = settings: cited from earlier work
# hH1 sodium channel = target: T1, hH1 sodium channel (Homo sapiens, UniProt Q14524); experiment: Inactivated state inhibition of hH1 sodium channel current (prepulse protocol); format: cell-based
# T1 construct: expressed in transfected cells; host or cells: HEK293
# T1 sequence (Q14524 whole entry): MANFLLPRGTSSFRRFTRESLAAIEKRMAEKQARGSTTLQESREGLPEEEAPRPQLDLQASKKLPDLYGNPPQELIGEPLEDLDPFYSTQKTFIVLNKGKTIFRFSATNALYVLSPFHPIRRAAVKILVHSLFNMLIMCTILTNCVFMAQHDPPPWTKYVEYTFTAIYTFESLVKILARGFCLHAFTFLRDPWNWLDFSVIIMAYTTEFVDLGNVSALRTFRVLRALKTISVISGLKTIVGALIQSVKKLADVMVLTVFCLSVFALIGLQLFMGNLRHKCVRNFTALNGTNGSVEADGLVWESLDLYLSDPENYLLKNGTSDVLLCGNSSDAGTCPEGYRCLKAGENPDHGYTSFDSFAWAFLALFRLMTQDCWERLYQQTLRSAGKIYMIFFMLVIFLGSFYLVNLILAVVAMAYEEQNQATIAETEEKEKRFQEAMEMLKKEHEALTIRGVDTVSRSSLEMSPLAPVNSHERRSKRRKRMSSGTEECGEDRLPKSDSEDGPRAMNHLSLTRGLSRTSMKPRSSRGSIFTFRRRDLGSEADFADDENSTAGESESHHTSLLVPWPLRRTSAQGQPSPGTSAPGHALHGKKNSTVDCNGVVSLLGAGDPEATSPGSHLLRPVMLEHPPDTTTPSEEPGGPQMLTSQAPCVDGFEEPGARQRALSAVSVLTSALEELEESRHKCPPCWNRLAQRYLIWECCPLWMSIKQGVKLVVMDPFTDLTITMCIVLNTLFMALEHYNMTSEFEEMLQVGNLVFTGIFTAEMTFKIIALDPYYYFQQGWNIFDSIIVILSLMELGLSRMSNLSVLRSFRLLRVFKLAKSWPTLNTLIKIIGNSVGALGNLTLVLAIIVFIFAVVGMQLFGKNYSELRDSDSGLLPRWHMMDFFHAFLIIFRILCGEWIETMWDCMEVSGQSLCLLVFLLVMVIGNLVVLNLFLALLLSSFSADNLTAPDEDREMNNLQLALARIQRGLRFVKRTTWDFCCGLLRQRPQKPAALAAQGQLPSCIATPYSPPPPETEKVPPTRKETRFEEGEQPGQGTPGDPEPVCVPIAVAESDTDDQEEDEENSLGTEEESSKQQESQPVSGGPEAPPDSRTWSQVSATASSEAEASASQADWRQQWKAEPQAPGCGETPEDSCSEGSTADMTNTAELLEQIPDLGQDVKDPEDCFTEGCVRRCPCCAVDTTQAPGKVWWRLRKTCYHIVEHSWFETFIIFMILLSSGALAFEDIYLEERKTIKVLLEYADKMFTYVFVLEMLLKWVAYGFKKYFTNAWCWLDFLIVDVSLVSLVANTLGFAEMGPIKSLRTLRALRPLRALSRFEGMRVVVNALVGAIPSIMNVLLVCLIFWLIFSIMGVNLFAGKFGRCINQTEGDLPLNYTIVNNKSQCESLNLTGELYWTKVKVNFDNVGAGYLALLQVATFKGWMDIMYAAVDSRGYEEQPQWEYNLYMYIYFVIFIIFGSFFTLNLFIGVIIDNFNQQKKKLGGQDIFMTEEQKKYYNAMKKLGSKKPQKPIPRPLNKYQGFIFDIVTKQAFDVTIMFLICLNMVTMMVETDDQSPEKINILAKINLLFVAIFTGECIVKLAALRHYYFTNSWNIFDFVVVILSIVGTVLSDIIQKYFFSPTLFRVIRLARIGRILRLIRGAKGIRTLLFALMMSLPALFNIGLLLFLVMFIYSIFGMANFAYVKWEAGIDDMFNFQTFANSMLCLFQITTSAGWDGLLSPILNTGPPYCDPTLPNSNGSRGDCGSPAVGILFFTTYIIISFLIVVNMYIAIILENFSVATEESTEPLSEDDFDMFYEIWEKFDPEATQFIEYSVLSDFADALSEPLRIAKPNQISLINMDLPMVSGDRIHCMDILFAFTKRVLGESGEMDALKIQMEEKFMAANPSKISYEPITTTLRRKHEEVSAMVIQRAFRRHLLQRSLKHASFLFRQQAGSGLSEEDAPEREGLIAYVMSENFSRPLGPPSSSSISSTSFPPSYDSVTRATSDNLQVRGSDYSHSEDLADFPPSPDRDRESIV
# [5] = system: isolated rabbit Purkinje fibers; settings: 100 μM
# [6] = methoxamine plus clofilium, no pretreatment
# [7] = 300 nM dofetilide in the presence of DMSO
# Sequence of human heart sodium channels (hH1) (Q14524 whole entry, looked up): as the sequence (Q14524 whole entry) above
structure (smiles),measurement,setting,value
"NC1=N[C@H](O)[C@H]2[C@H]3O[C@]4(O)O[C@@H]([C@@H](O)[C@@]2(N1)[C@@H]4O)[C@]3(O)CO [TTX, tetrodotoxin]",block of unsubtracted Iearly,[1],completely
CCCCCCC[N+](CC)(CC)CCCCc1ccc(Cl)cc1 [clofilium],TdP incidence (animals),"[2]; methoxamine 20 μg/kg/min plus clofilium 300 nmol/kg/min, no pretreatment",7 of 9
same,increase in QTc interval 2.5 minutes after starting clofilium,[2]; methoxamine and clofilium without any pretreatment,20±11%
same,cumulative dose of clofilium at TdP,[2]; [6],1.4 ± 0.2 mg/kg
same,time to TdP after starting clofilium infusion,[2]; [6],7.0 ± 1.3 min
same,time to first PVC after starting clofilium infusion,[2]; [6],3.3 ± 0.5 min
CN(CCOc1ccc(NS(C)(=O)=O)cc1)CCc1ccc(NS(C)(=O)=O)cc1 [dofetilide],increase in APD90,rabbit Purkinje fibers [3]; [7],92%
same,percentage increase in APD50,rabbit Purkinje fibers [3]; [7],86%
same,Vmax,rabbit Purkinje fibers [3]; dofetilide and DMSO,253±48 V/s
same,increase of APD90,"rabbit Purkinje fibers [4]; 10 nM, BCL=1000 ms",83%
CCN(CC)CC(=O)Nc1c(C)cccc1C [lidocaine],block of TTX-sensitive early current Iearly(TTX),[1],41±2.7%
same,block of TTX-sensitive late current Ilate(TTX),[1],73±2.8%
same,block of TTX-sensitive sustained current Isus(TTX),[1],70±2.5%
same,hH1 inhibition with longer prepulses (inactivated state inhibition),hH1 sodium channel,enhanced inhibition
same,termination of EADs induced by 300 nM dofetilide,[5],terminated
C=C[C@H]1C[N@@]2CC[C@H]1C[C@@H]2[C@@H](O)c1ccnc2ccc(OC)cc12 [quinidine],increase of APD90,rabbit Purkinje fibers [4]; 10 μM,93%
